Assay results published in patent US20220380341A1, “INHIBITORS OF HIV-1 NEF FOR THE TREATMENT OF HIV DISEASE” (priority 2018, published 2022).
Read-outs that look alike come from different tables or passages of the source.

Assays:
HIV-1NL4-3 = experiment: HIV-1 infectivity assay in TZM-bl reporter cell line (LTR-luciferase, 48 h); type: cell-based; conditions: Human immunodeficiency virus 1, TZM-bl
Method in brief: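 TZM-bl cells infected with HIV-1NL4-3 ± compound (1 μM), luciferase measured at 48 h. Normalization: DMSO/wild-type = 0% inhibition, DMSO/Nef-defective = 100% of Nef-dependent effect.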

TZM-bl cell line = type: cell-based; conditions: human, 1 μM
Method in brief: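 Nef-dependent infectivity in TZM-bl cells: HIV-1NL4-3 infection with 1 μM compound, luciferase read at 48 h, normalized against DMSO wild-type and Nef-defective controls. Compound cytotoxicity in uninfected cells measured by Cell Titer Blue.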

HIV-1 NefNL4-3 = HIV-1 NefNL4-3 (Human immunodeficiency virus type 1 group M subtype B, UniProt P03406, A33V/T15A/T51N/V11I); experiment: Surface plasmon resonance binding to recombinant full-length Nef (NL4-3); conditions: for RU30/RUNef (extent of binding): response units at 30 μM relative to Nef immobilized on the SPR chip; for Nef NL4-3 Binding, SPR 1:1 or 2-site fitting KD1: 1:1 Langmuir fit where the KD2 cell says '1 to 1 fitting', else 2-site fit
[1] = 1.0 μM, TZM-bl reporter cell line, Table 4, read-out: % Infectivity Inhibition
[2] = 48 h, Table 1, TZM-bl cells, 1 μM, 48 h, 100% = Nef-defective HIV-1, read-out: HIV-1 Infectivity % Inhibition Norm. to Δ-Nef @ 1 μM
[3] = KD, M, Table 4, SPR fit 1:1 Langmuir, KD = koff/kon
[4] = Table 4, 1:1 Langmuir fit, T = 1/koff
[5] = KD, M, Table 4, SPR fit 2-step induced fit, KD = koff/kon × koff2/(koff2 + kon2)
[6] = Nef NL4-3 Binding, SPR 2-state fitting KD, Table 1, 2-step induced-fit model
[7] = Table 4, 2-step induced fit, T = 1/koff2

Compound	inhibition at 1 µM (HIV-1NL4-3; [1]) [%]	inhibition at 1 µM (HIV-1NL4-3; [2]) [%]	% Cell Viability (TZM-bl cell line) [%]	Percent Viability @ 1 μM (TZM-bl cells) (TZM-bl cell line) [%]	Kd (HIV-1 NefNL4-3) [µM]	Kd (HIV-1 NefNL4-3; [3]) [µM]	T, minutes (residence time) (HIV-1 NefNL4-3; [4])	RU30/RUNef (extent of binding) (HIV-1 NefNL4-3)	Kd (HIV-1 NefNL4-3; [5]) [µM]	Kd (HIV-1 NefNL4-3; [6]) [µM]	T, minutes (residence time) (HIV-1 NefNL4-3; [7])	Nef NL4-3 Binding, SPR 1:1 or 2-site fitting KD1 (HIV-1 NefNL4-3; Table 1)	Kd (HIV-1 NefNL4-3; read-out: Nef NL4-3 Binding, SPR 1:1 or 2-site fitting KD2, Table 1, 2-site fit, second component) [µM]
CS(=O)(=O)N1CCC(CCc2c(-c3ccc(C(F)(F)F)cn3)nn(-c3nc4cc(Br)ccc4[nH]3)c2O)CC1 [Compound I-775, 1-(5-bromo-1H-1,3-benzodiazol-2-yl)-4-[2-(1-methanesulfonylpiperidin-4-yl)ethyl]-3-[5-(trifluoromethyl)pyridin-2-yl]-1H-pyrazol-5-ol]	62.1	62.1	72.9	72.9	0.316	0.316	4.26E + 01 minutes	1.62E- 03	–	–	–	–	–
CC(C)(O)C(=O)N1CCC(CCc2c(-c3cccc(S(C)(=O)=O)c3)nn(-c3nc4ccccc4[nH]3)c2O)CC1 [Compound I-776, 1-(4-{2-[1-(1H-1,3-benzodiazol-2-yl)-5-hydroxy-3-(3-methanesulfonylphenyl)-1H-pyrazol-4-yl]ethyl}piperidin-1-yl)-2-hydroxy-2-methylpropan-1-one]	19.3	19.3	97.1	97.1	0.393	–	–	5.14E- 03	1.2	1.2	1.06E + 01 minutes	–	–
CC(C)(O)C(=O)N1CCC(Cc2nn(-c3nc4ccccc4[nH]3)c(O)c2CCc2ccc(F)cc2)CC1 [Compound I-777, 1-(4-{[1-(1H-1,3-benzodiazol-2-yl)-4-[2-(4-fluorophenyl)ethyl]-5-hydroxy-1H-pyrazol-3-yl]methyl}piperidin-1-yl)-2-hydroxy-2-methylpropan-1-one]	0	-3.6	97.0	97.0	0.997	0.997	3.50E + 00 minutes	2.23E- 03	–	–	–	–	–
CC(=O)N1CCCC(Cc2c(C3CC3)nn(-c3nc4ccccc4[nH]3)c2O)C1 (stereo not drawn) [Compound I-780, 1-(3-{[1-(1H-1,3-benzodiazol-2-yl)-3-cyclopropyl-5-hydroxy-1H-pyrazol-4-yl]methyl}piperidin-1-yl)ethan-1-one]	0	–	99	–	–	4.07	8.13E + 00 minutes	4.47E- 03	–	–	–	–	–
CN(C)C(=O)N1CCCC(Cc2c(C3CC3)nn(-c3nc4ccccc4[nH]3)c2O)C1 (stereo not drawn) [Compound I-782, 3-{[1-(1H-1,3-benzodiazol-2-yl)-3-cyclopropyl-5-hydroxy-1H-pyrazol-4-yl]methyl}-N,N-dimethylpiperidine-1-carboxamide]	61.1	–	98.8	–	–	9.41	3.62E + 00 minutes	5.13E- 03	–	–	–	–	–
C[C@@](O)(C(=O)N1CCC(CCc2c(C3CC3)nn(-c3nc4ccccc4[nH]3)c2O)CC1)C(F)(F)F [Compound I-783, (2R)-1-(4-{2-[1-(1H-1,3-benzodiazol-2-yl)-3-cyclopropyl-5-hydroxy-1H-pyrazol-4-yl]ethyl}piperidin-1-yl)-3,3,3-trifluoro-2-hydroxy-2-methylpropan-1-one]	5.4	–	100	–	–	3.37	4.08E + 00 minutes	1.38E- 03	–	–	–	–	–
Oc1c(CCc2ccc(F)cc2)c(C2CCN(Cc3ccccn3)CC2)nn1-c1nc2ccccc2[nH]1 [Compound I-802, 1-(1H-1,3-benzodiazol-2-yl)-4-[2-(4-fluorophenyl)ethyl]-3-{1-[(pyridin-2-yl)methyl]piperidin-4-yl}-1H-pyrazol-5-ol]	4.4	4.4	99.3	99.3	0.447	–	–	2.48E- 03	0.182	0.182	2.21E + 01 minutes	–	–
Oc1c(CCc2ccc(F)cc2)c(C2CCN(Cc3cccnc3)CC2)nn1-c1nc2ccccc2[nH]1 [Compound I-803, 1-(1H-1,3-benzodiazol-2-yl)-4-[2-(4-fluorophenyl)ethyl]-3-{1-[(pyridin-3-yl)methyl]piperidin-4-yl}-1H-pyrazol-5-ol]	3.2	3.2	100	100.4	0.817	0.817	1.59E + 01 minutes	1.69E- 03	–	–	–	–	–
Oc1c(CCc2ccc(F)cc2)c(C2CCN(Cc3ccncc3)CC2)nn1-c1nc2ccccc2[nH]1 [Compound I-804, 1-(1H-1,3-benzodiazol-2-yl)-4-[2-(4-fluorophenyl)ethyl]-3-{1-[(pyridin-4-yl)methyl]piperidin-4-yl}-1H-pyrazol-5-ol]	–	50	–	97.5	0.0908	–	–	–	–	–	–	–	–
Oc1c(CCc2ccc(F)cc2)c(C2CCN(CC3CCOCC3)CC2)nn1-c1nc2ccccc2[nH]1 [Compound I-806, 1-(1H-1,3-benzodiazol-2-yl)-4-[2-(4-fluorophenyl)ethyl]-3-{1-[(oxan-4-yl)methyl]piperidin-4-yl}-1H-pyrazol-5-ol]	20.6	20.6	99.1	99.1	9.9	9.9	1.79E + 00 minutes	7.48E- 04	–	–	–	–	–
Oc1c(CCc2ccc(F)cc2)c(CC2CCN(Cc3ccccn3)CC2)nn1-c1nc2ccccc2[nH]1 [Compound I-807, 1-(1H-1,3-benzodiazol-2-yl)-4-[2-(4-fluorophenyl)ethyl]-3-({1-[(pyridin-2-yl)methyl]piperidin-4-yl}methyl)-1H-pyrazol-5-ol]	–	40.4	–	99.0	–	–	–	–	–	–	–	No Interaction	–
Oc1c(CCc2ccc(F)cc2)c(CC2CCN(Cc3cccnc3)CC2)nn1-c1nc2ccccc2[nH]1 [Compound I-808, 1-(1H-1,3-benzodiazol-2-yl)-4-[2-(4-fluorophenyl)ethyl]-3-({1-[(pyridin-3-yl)methyl]piperidin-4-yl}methyl)-1H-pyrazol-5-ol]	–	12.8	–	102.6	–	–	–	–	–	–	–	No Interaction	–
Oc1c(CCc2ccc(F)cc2)c(CC2CCN(Cc3ccncc3)CC2)nn1-c1nc2ccccc2[nH]1 [Compound I-809, 1-(1H-1,3-benzodiazol-2-yl)-4-[2-(4-fluorophenyl)ethyl]-3-({1-[(pyridin-4-yl)methyl]piperidin-4-yl}methyl)-1H-pyrazol-5-ol]	–	14.1	–	97.9	2.74	–	–	–	–	–	–	–	–
Oc1c(CCc2ccc(F)cc2)c(CNCc2ccncc2)nn1-c1nc2ccccc2[nH]1 [Compound I-810, 1-(1H-1,3-benzodiazol-2-yl)-4-[2-(4-fluorophenyl)ethyl]-3-({[(pyridin-4-yl)methyl]amino}methyl)-1H-pyrazol-5-ol]	42.8	42.8	100	101.3	0.0707	–	–	3.75E- 03	3.58	3.58	5.97E + 00 minutes	–	3.19
